Results on 1 compound are retold here after US20250213627A1, “RECOMBINANT MICROORGANISM-BASED METHODS AND COMPOSITIONS FOR TREATMENT OF DISEASE” (Baylor College of Medicine, priority 2021, published 2025).

Each structure is given as a SMILES string.

Data set [1] deals with T1, mKv1.3 channels (Mus musculus, UniProt P16390).
T1 construct: expressed in transfected cells
Put plainly: Whole-cell patch-clamp block of Kv1.3 currents in L929 fibroblasts stably expressing mKv1.3. The class given is cell-based. As for the experimental part: In the absence of antibodies directed to ShK-235, the inventors used functional assays to identify and quantify ShK-235 expression and secretion into culture supernatants of LrS235. In more detail, the presence of active peptide was assayed by using whole-cell patch-clamp to test the ability of LrS235 supernatants to block Kv1.3 channels in mouse L929 fibroblasts stably expressing mKv1.3 channels. LrS235 and LrGusA were grown to mid-exponential phase and induced for expression of ShK-235 or GusA, and supernatants were processed as described in the materials and methods. […] Culture supernatant from LrS235 and LrGusA was tested for Kv1.3 channel block and the dose-response curve used to calculate the concentration of ShK-235 in supernatants.
Patch-clamp electrophysiology. To determine the concentration of ShK-235 in the LrS235 supernatants and rat sera, a dose-response of ShK-235 block of Kv1.3 was determined by adding known concentrations of the peptide to naïve rat serum and then testing by whole-cell patch-clamp of mouse L929 fibroblasts stably expressing mKv1.3 channels (45) using a PORT-A-PATCH® automated patch-clamp system (Nanion, Livingston, NJ), as described (16, 46). Culture supernatants and serum samples were then assessed with the same technique, and the dose-response curve was used to determine peptide concentration.
For orientation: In patch-clamp work, channel activity is measured electrically.

For data set [2], the system named is Kv1.3 versus Kv1.1 and other ion channels. Put plainly: Selectivity for Kv1.3 over other channels by whole-cell patch-clamp. Conditions: FIG. 5E. It counts as cell-based. The text has this: FIGS. 5A-5E. […] FIG. 5A. Whole-cell Kv1.3 currents before (control) and after addition of 100 pM ShK-235. FIG. 5B. Dose-response effects of ShK-235 on Kv1.3 currents (n=4 cells per concentration). FIG. 5C. Dose-response of mKv1.3 block by synthetic ShK-235. N=3 cells per concentration. […] FIG. 5D. Representative traces of the block of mKv1.3 currents by 100 pM synthetic ShK-235. FIG. 5E. Selectivity of ShK-235 against Kv1.x channels determined by whole-cell patch-clamp.

Data set [3] relates to collagen-induced arthritis (CIA) in Lewis rats. Put plainly: Collagen-induced arthritis (CIA) treatment trial. The class given is in vivo, rat. As for the experimental part: Starting at onset of clinical signs, four groups of rats received ˜1×10^9 CFU of either LrGusA or LrS235, both after SppIP induction for 2.5 hr, by daily oral gavage, or P6N vehicle or synthetic ShK-235 by injection in the scruff of the neck every other day.
Induction, monitoring, randomization, and treatment of rat collagen-induced arthritis. CIA was induced as described previously (46, 50). Briefly, female Lewis rats received a subcutaneous injection of 200 μl of a 1:1 emulsion of 2 mg/ml porcine type II collagen (20031, Chondrex, Redmond, WA) with incomplete Freund's adjuvant at the base of the tail. After 7 days, rats were given a booster of 100 μl of collagen and adjuvant emulsion. Disease onset was defined as the development of at least one swollen or red paw joint. Clinical scores were determined daily by assigning 1 point for each swollen or red toe joint, 2 points for mildly swollen wrist or ankle joints, and 5 points for each severely swollen wrist or ankle, giving each rat a maximum possible score of 60. Upon disease onset, rats were treated every other day by the subcutaneous injection of P6N buffer vehicle or 0.1 mg/kg ShK-235, or the oral gavage of 1×10^9 cfus LrGusA or 1×10^9 cfus LrS235 daily. CIA is more severe in rats with early disease onset. To avoid biasing results based on disease severity on the day each rat developed signs of disease and accounting for differences in the time between immunization and when a rat developed signs of illness, every rat that developed signs of disease on a given day was placed in a different treatment group to fill all groups in parallel.
Histology and micro-CT. Healthy rats and rats from the CIA trials were euthanized after 21 days of treatment, and their hind paws were collected and fixed in 10% buffered formalin. One paw from each rat was imaged by Micro-CT using a Bruker SkyScan 1272 Scanner set at 13 μm resolution with no filtering, no averaging, and a rotation step of 0.3. Raw images were analyzed with CTvox (Bruker, MA, US). The other hind paw was decalcified, embedded in paraffin, and sectioned. Slides were stained with either hematoxylin and eosin or Safranin O/Fast green and imaged at 4× magnification on a Nikon Ci-L bright-field microscope (Nikon Inc. NY, US). Scoring of the slides was completed by an investigator blinded to treatment groups using a comprehensive histological scoring system as described elsewhere (46, 51), in which cartilage degradation, cartilage erosion, angiogenesis, pannus formation, synovial hyperplasia, and synovial inflammation were evaluated by the following criteria: 0=absent, 1=mild, 2=moderate, 3=severe. The data were presented as mean±standard deviation.

Data set [4] deals with ShK-235 neutralizing antibodies. Put plainly: Antibody neutralization assay with CIA rat serum. It counts as cell-based. The settings on record: CIA rat serum samples. As for the experimental part:
To test if ShK-235 produced by LrS235 is immunogenic, the sera of rats were assessed at the end of the 21-day CIA trial shown in FIG. 8 for anti-ShK-235 IgG by ELISA assay. Plates coated with collagen II and HsTX1[R14A] were used as controls. HsTX1[R14A] is another peptide blocker of Kv1.3 with no sequence or structural homology to ShK-235.
Antibody neutralization assays. […] It was then added to the PBMCs loaded with CELLTRACE™ Violet (C34557, ThermoFisher, MA, US), and T cells proliferation was assessed as described above.

The nature of data set [5]: Thermal stability of peptide.

T1 sequence (P16390 whole entry): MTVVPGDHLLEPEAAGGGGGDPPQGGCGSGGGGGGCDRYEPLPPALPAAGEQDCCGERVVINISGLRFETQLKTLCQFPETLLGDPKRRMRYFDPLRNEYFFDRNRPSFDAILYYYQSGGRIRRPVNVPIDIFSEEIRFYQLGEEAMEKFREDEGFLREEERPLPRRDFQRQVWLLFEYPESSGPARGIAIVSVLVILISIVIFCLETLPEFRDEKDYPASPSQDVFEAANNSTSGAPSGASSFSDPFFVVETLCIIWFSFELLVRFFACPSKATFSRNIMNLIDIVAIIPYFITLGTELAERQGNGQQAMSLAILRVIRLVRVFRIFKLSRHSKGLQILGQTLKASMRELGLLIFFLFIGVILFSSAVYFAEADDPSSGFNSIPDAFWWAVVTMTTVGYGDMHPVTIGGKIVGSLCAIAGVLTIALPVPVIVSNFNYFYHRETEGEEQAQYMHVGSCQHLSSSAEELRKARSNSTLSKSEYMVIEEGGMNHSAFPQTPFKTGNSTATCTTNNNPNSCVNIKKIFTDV

Consider `CC[C@H](C)[C@@H]1NC(=O)[C@H](CO)NC(=O)[C@H](Cc2c[nH]cn2)NC(=O)[C@H](CCCCN)NC(=O)[C@@H]2CSSC[C@@H]3NC(=O)[C@H]([C@@H](C)O)NC(=O)[C@H](CCCCN)NC(=O)[C@H](CCCNC(=N)N)NC(=O)[C@H](CSSC[C@H](NC(=O)[C@H](CCCNC(=N)N)NC(=O)[C@H](CO)NC(=O)[C@H](CCCCN)NC(=O)[C@@H]4CCCN4C(=O)[C@H]([C@@H](C)CC)NC(=O)[C@H]([C@@H](C)O)NC(=O)[C@H](CC(=O)O)NC(=O)[C@H]([C@@H](C)CC)NC(=O)[C@@H](NC(=O)[C@H](CO)NC(=O)[C@@H](N)CCCNC(=N)N)CSSC[C@@H](C(=O)N[C@@H](C)C(=O)O)NC(=O)[C@H]([C@@H](C)O)NC(=O)CNC3=O)C(=O)N[C@@H]([C@@H](C)O)C(=O)N[C@@H](C)C(=O)N[C@@H](Cc3ccccc3)C(=O)N[C@@H](CCCCN)C(=O)N2)NC(=O)[C@H](Cc2ccccc2)NC(=O)[C@H](CO)NC(=O)[C@H](CC(C)C)NC(=O)[C@H](CCCNC(=N)N)NC(=O)[C@H](Cc2ccc(O)cc2)NC(=O)[C@H](CCCCN)NC1=O` [ShK-235], for which, in data set [1], the IC50 (as a rule, the concentration at which inhibition is half-maximal) came out at 0.0693 ± 0.024 nM. The “Selectivity for Kv1.3 over other channels” value in data set [2] is listed as ≥ 2,200 fold. Also, the “Mean clinical score of arthritis” value in data set [3] (21 days from onset, bacteria ~1×10^9 CFU daily oral gavage, synthetic ShK-235 0.1 mg/kg s.c. every other day, max score 60) was 11±3. In data set [3] (end of trial), the “Joint histology parameters (cartilage degradation and erosion, angiogenesis, pannus, synovial hyperplasia and inflammation)” value is “significantly reduced all parameters”; the “Micro-CT imaging of hind limbs (bone erosion)” value was “better-preserved bones”. The “Reduction of mean clinical score compared to vehicle control” value in data set [3] (same regimens as mean score) is roughly 60%. The “Neutralization of ShK-235 by serum” value in data set [4] was “no neutralization”. Also, the Temperature stability entry in data set [5] is “up to 80 °C”.
